Test results taken from patent publication US5747482A, “Methods and compositions to inhibit keratinocyte proliferation” (priority 1996, dated 1998).
Like-named read-outs stand apart in the source and are kept apart here.

Columns and labels:
keratinocyte cells [1] = assay type: cell-based, human; conditions: for induction of apoptosis: 24 hours treatment
From the text: (§1) Adult human keratinocytes from pooled donor skin were obtained from commercial sources (Cascade Biologics, Portland, Oreg., U.S.A.) and placed in 150 cm^2 bottom area culture flasks using culture medium 154 supplemented with HKGS (about 1%). At 80% confluency, cells were harvested with trypsin and cryopreserved until required.
The induction of apoptosis is a critical feature in the programmed cell death as it relates to disease conditions such as cancer, psoriasis, etc. where the uncontrolled proliferation of "immortal" cells such as keratinocytes is a causative feature of the disease. This example compares the ability of gallium maltol to induce apoptosis as compared to negative control (no gallium maltol), and positive control (CAM--an agent known to strongly induce apoptosis). The ability for gallium maltol to effect apoptosis was also measured by the inhibitory effect of ATA.
Specifically, keratinocyte cells were grown using medium 154 in 24 well plates seed with 2,500 cells/cm^2 as described above. Cultures were continued for 3 or 6 days when the cells had achieved about 20 or 60% confluence respectively. On these 2 occasions, media were aspirated from groups of 3 or 4 wells and replaced with high Ca^+2 medium either without supplement or with one of the following supplements:
1. Gallium maltol at a final concentration of one of the following: (a) 5×10^-4 M, (b) 1×10^-4 M, (c) 5×10^-5 M, (d) 1×10^-5 M, and (e) 1×10^-6 M;
4. As in (3) plus CAM at 1×10^-5 or 1×10^-6 M; and
5. As in (3) plus gallium maltol at 1×10^-4 or 2.5×10^-4 M;
(§2) Culture was renewed for a further 24 hours. At this time, media were removed and discarded, and the cells lysed with 200 μL/well of the solution provided in the Cell Death Detection Kit ELISA Plus (Boehringer Mannheim Biochemicals, Indianapolis, Ind., U.S.A., catalogue number 1774425). Aliquots of the lysate (20 μL) from each of 2 or 3 wells were assayed for nucleosomal enrichment following the kit instructions.

[2] = oral; cited from earlier work
keratinocyte cells [3] = assay type: cell-based, human; conditions: gallium nitrate 5×10^-4 M; maltol 15×10^-4 M; 2 days treatment, 1.2 mM Ca^+2; FIG. 7
Procedure: as §1, §2
The evaluation of apoptosis of keratinocytes was conducted to determine the relative affect on apoptosis achieved by gallium maltol, gallium nitrate and maltol. Specifically, keratinocyte cells were seeded in 12 well plates seed using culture medium 154. Cultures were continued for 4 days and the medium was changed to medium 154 with 1.2 mM Ca^+2 either without supplement or with one of the following supplements:
1. gallium maltol at a final concentration of 5×10^-4 M;
2. gallium nitrate at a final concentration of 5×10^-4 M;
3. maltol at a concentration of 15×10^-4 M; and
4. CAM at a concentration of 1×10^-5 M.
Three (3) wells were used in each group. The final amount of medium was 300 μL in each well. Culture was continued for 2 days. Bars represent absorbance at 405 nm minus the absorbance at 492 nm.

Keratinocytes = assay: Comparison of keratinocyte growth inhibition by gallium maltol, gallium nitrate and maltol, Example 3; assay type: cell-based, human; conditions: gallium nitrate 1×10^-4 M; maltol 3×10^-4 M; 9 days, high Ca^+2 medium; FIG. 3
From the text: as §1
At the start of the experiments, the required number of vials of keratinocytes was thawed, and the keratinocytes were placed in culture in 24 well plates at about 2,500 cells/cm^2 using the same culture medium as described above. After 24 hours (to allow attachment), the medium was changed to fresh 154 supplemented with HKGS (about 1%) and gallium maltol. Specifically, the fresh medium was prepared by addition of a sufficient amount of a stock solution to provide for six different compositions having a final gallium concentration of 10^-4 M, 10^-5 M, 10^-6 M, 10^-8 M, 10^-10 M, and 10^-12 M. The stock solution was prepared by adding 22.25 mg of gallium maltol to 50 mL of 154 medium and then passing the solution through a 0.2 μm filter and storing at 4° C.
When control cells were about 40% confluent (generally at 4-5 days in culture, all media were removed by aspiration, keratinocyte growth was assayed by crystal violet staining and conversion to cell numbers as described by Wilkinson, et al.^11. Specifically, cell layers rinsed in PBS, which was also aspirated, and 4 drops of crystal violet solution added to each well. The crystal violet solution was prepared by dissolving crystal violet (Fisher Scientific) in PBS:formaldehyde:ethanol (67:3:30%) to give a 0.5 w/v solution. A blank 24-well plate was treated similarly.
Keratinocytes were cultured in 24-well plates for 9 days in the manner described above in Example 2. […]
The cells were then cultured and subsequently evaluated for inhibition of keratinocyte proliferation in the manner described above.

Row | Compound | toxicity when taken orally [2] | effect on apoptosis (keratinocyte cells [3]) | effect on keratinocyte proliferation (Keratinocytes) | other results
1 | O=C(O)C1=CC(=C(c2ccc(O)c(C(=O)O)c2)c2ccc(O)c(C(=O)O)c2)C=CC1=O [ATA, aurin tricarboxylic acid, reference compound] |  |  |  | reduction of CAM-induced apoptosis (keratinocyte cells [1]; 1×10^-4 M ATA + 1×10^-5 M CAM, cultured 3 days prior, FIG. 5): reduced by half; reduction of CAM-induced apoptosis (keratinocyte cells [1]; 1×10^-4 M ATA + 1×10^-6 M CAM, cultured 6 days prior, FIG. 6): reduced by half
2 | CC[C@@]1(O)C(=O)OCc2c1cc1n(c2=O)Cc2cc3ccccc3nc2-1 [CAM, camptothecin, reference compound] |  |  |  | induction of apoptosis (keratinocyte cells [1]; 1×10^-5 M, cultured 3 days prior, FIG. 5): strongly induced apoptosis; induction of apoptosis (keratinocyte cells [1]; 1×10^-6 M, cultured 6 days prior, FIG. 6): strongly induced apoptosis
3 | CCc1occc(=O)c1O [ethyl maltol, 3-hydroxy-2-ethyl-4-pyrone] | very low toxicities when taken orally |  |  | 
4 | O=[N+]([O-])[O-].O=[N+]([O-])[O-].O=[N+]([O-])[O-].[Ga+3] [gallium nitrate] |  | no significant effect on apoptosis | neither gallium nitrate nor maltol had any effect on keratinocyte proliferation | 
5 | Cc1occc(=O)c1O [maltol, 3-hydroxy-2-methyl-4-pyrone] | very low toxicities when taken orally | no significant effect on apoptosis | neither gallium nitrate nor maltol had any effect on keratinocyte proliferation | 
